Experiments:
Assay in all cases: relative viability (nuclei count vs DMSO), 5 days (fraction); higher = more cells survive
[1] = compound: C/C(=N\NC(=S)N1CCC1)/C2=CC=CC=N2 + CC(=O)Nc1cccc(-n2c(=O)n(C3CC3)c(=O)c3c(Nc4ccc(I)cc4F)n(C)c(=O)c(C)c32)c1 [Trametinib] (partner 0.02 µM)
Method in brief: (§1)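 One day after seeding in 1536-well plates, lung cancer cell lines were dosed by pin tool. Dosing was either single-drug or a fixed anchor-drug dose plus five library-drug doses (not always all listed) in √10 steps. After 5 days, nuclei were stained in one fix-and-stain step and counted on 4× images, and relative viability is the nuclei count of treated wells over that of vehicle wells, given as the median of duplicate plates.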

[2] = compound: C/C(=N\NC(=S)N1CCC1)/C2=CC=CC=N2 + COc1cccc2cc(-c3nc([C@H]4CC[C@H](C(=O)O)CC4)n4ncnc(N)c34)[nH]c12 [OSI-027] (partner 0.5 µM)
Method in brief: as §1

[3] = compound: C/C(=N\NC(=S)N1CCC1)/C2=CC=CC=N2 + N=C(N)NC(=N)NCCc1ccccc1 [Phenformin] (partner 250 µM)
Method in brief: as §1

[4] = compound: C/C(=N\NC(=S)N1CCC1)/C2=CC=CC=N2 + C[C@@H](Oc1cc(-c2cnn(C3CCNCC3)c2)cnc1N)c1c(Cl)ccc(F)c1Cl [Crizotinib] (partner 1 µM)
Method in brief: as §1

Cell Line	relative viability ([1]; first compound 0.05 µM)	relative viability ([1]; first compound 0.1581 µM)	relative viability ([1]; first compound 0.5 µM)	relative viability ([1]; first compound 1.581 µM)	relative viability ([1]; first compound 5 µM)	relative viability ([2]; first compound 0.05 µM)	relative viability ([2]; first compound 0.1581 µM)	relative viability ([2]; first compound 0.5 µM)	relative viability ([2]; first compound 1.581 µM)	relative viability ([2]; first compound 5 µM)	relative viability ([3]; first compound 0.05 µM)	relative viability ([3]; first compound 0.1581 µM)	relative viability ([3]; first compound 0.5 µM)	relative viability ([3]; first compound 1.581 µM)	relative viability ([3]; first compound 5 µM)	relative viability ([4]; first compound 0.05 µM)	relative viability ([4]; first compound 0.1581 µM)	relative viability ([4]; first compound 0.5 µM)	relative viability ([4]; first compound 1.581 µM)	relative viability ([4]; first compound 5 µM)
PC-3 [JPC-3]	0.402	0.409	0.318	0.357	0.342	0.271	0.301	0.265	0.25	0.214	0.332	0.342	0.334	0.277	0.195	0.594	0.984	0.361	0.301	0.252
PC-14	0.0651	0.0788	0.0488	0.039	0.0546	0.0306	0.0778	0.0467	0.041	0.0364	0.0972	0.134	0.095	0.0228	0.0472	0.215	0.11	0.0946	0.0983	0.0928
RERF-LC-KJ	0.242	0.241	0.204	0.222	0.214	0.266	0.258	0.251	0.221	0.243	0.316	0.279	0.319	0.273	0.287	0.224	0.263	0.253	0.239	0.242
SK-LU-1	0.294	0.278	0.254	0.191	0.258	0.145	0.136	0.131	0.124	0.151	0.124	0.152	0.174	0.104	0.123	0.277	0.191	0.203	0.19	0.208
SK-MES-1	0.277	0.236	0.245	0.213	0.246	0.197	0.182	0.157	0.137	0.186	0.219	0.233	0.197	0.175	0.173	0.231	0.214	0.179	0.167	0.177
SW 1573	0.0975	0.0992	0.119	0.0672	0.0635	0.0449	0.0562	0.134	0.065	0.0544	0.0755	0.0616	0.0965	0.0629	0.0599	0.11	0.123	0.138	0.102	0.0709
UMC-11	0.164	0.164	0.159	0.113	0.129	0.235	0.186	0.183	0.181	0.142	0.202	0.19	0.207	0.185	0.168	0.181	0.115	0.128	0.101	0.0892

Reference: the supplement of paper PMC10307832
